Measured values as given in US9693828B2, “Composition comprising acetic anhydride and a gadolinium complex, and method for the use in hyperpolarisation in MRI analysis” (BRACCO IMAGING S.P.A., priority 2011, dated 2017).

Tests used:
[1] = DNP hyperpolarisation of acetic anhydride with Finlandic acid trityl radical, with or without gadolinium complex (solid state polarisation build up); type: physicochemical
Protocol: A stock solution of radical was prepared by dissolving Finlandic acid (2.7 mg, 2.6 μmol) in unlabeled acetic anhydride (22.2 mg) yielding a solution with a concentration of 105 μmol/g.

[2] = Dissolution and hydrolysis of hyperpolarised acetic anhydride, NMR time series of 1D spectra to follow signal decay; type: physicochemical
Protocol: A stock solution of radical was prepared by dissolving Finlandic acid (2.7 mg, 2.6 μmol) in unlabeled acetic anhydride (22.2 mg) yielding a solution with a concentration of 105 μmol/g. A part (2.1 mg) of this stock solution was mixed with 1,1′-^13C2 acetic anhydride (15 μl, 17.2 mg, 0.165 mmol) to make a 12.8 mM solution. […] The sample was dissolved in 5 ml water with added NaOH (12 M, 39 μl) and allowed to hydrolyze for 15 s and then neutralized by mixing with phosphate buffer (300 μl, 1M, pH 7.3) with addition of HCl (14 μl, 12M). The sample was transferred to an NMR spectrometer and the acquisition was started 30 s after the dissolution recording a time series of 1D spectra to follow signal decay.

[3] = 13C DNP, acetic anhydride/1,1'-13C2 acetic anhydride, Finlandic acid radical 12.5 mM, gadolinium complex added as labelled (none for acetic anhydride, Example 1), FIG. 1

Question: For `CCCCCCCCCCCCCCCCCCN(CCCCCCCCCCCCCCCCCC)C(=O)CN1CCN(CC(=O)[O-])CCN(CC(=O)[O-])CCN(CC(=O)[O-])CC1.[Gd+3]` [Gadolinium complex II, [10-[2-(dioctadecylamino)-2-oxoethyl]-1,4,7,10-tetraazacyclododecane-1,4,7-triacetato(3-)]gadolinium, reference compound], which “exponential time constant of hyperpolarisation” value (“exponential time constant” below) [1, 3] is on record?
Answer: The value was 690 s.

Question: For `CC(O)CN1CCN(CC(=O)[O-])CCN(CC(=O)[O-])CCN(CC(=O)[O-])CC1.[Gd+3]` (stereo not shown) [Gadolinium complex III, [10-(2-hydroxypropyl)-1,4,7,10-tetraazacyclododecane-1,4,7-triacetato(3-)]gadolinium, reference compound], which “exponential time constant” value [1, 3] is on record?
Answer: The value was 750 s.

Question: Which “exponential time constant” value [1, 3] does the source give for `CC(=O)OC(C)=O` [acetic anhydride] here?
Answer: Its value is 670 s.

Question: And the “exponential time constant” value ([1]; Example 5: 1,1'-13C2 acetic anhydride, Finlandic acid 12.8 mM, no gadolinium complex)?
Answer: The value was 525 s.

Question: What about the “hydrolysis of acetic anhydride at the start of the acquisition” value ([2]; 5 ml water with NaOH, 15 s hydrolysis, neutralized, acquisition 30 s after dissolution) of the same compound?
Answer: The value was “complete”.

Question: Which “T1 of the hydrolysis product” value ([2]; after dissolution in water/NaOH, hydrolysis 15 s, neutralization to pH 6.8, acquisition started 30 s after dissolution) does the source give for `CC(=O)O` [hydrolysis product, acetic acid] here?
Answer: The value was 45 s.

Question: For “[[α1,α4,α7-tris[(phenylmethoxy)methyl]-1,4,7,10-tetraazacyclododecane-1,4,7,10-tetraacetato(4-)]gadolinate(1-)]hydrogen [Gadolinium complex I]”, which “exponential time constant” value [1, 3] is on record?
Answer: Its value is 690 s.
